In ChEMBL document CHEMBL5360600, “Optimization of 1,2,4-Triazole-Based p97 Inhibitors for the Treatment of Cancer” (ACS Med Chem Lett, 2023):
pEC50, pIC50: −log10 of the molar value. Converted amounts (≈) assume the structure as drawn. The source made the active and inactive calls. No cut-off for these calls is given here.

Assays:
[1] = Solubility of compound at pH 7.4 in PBS by UV/visible spectrophotometer analysis; format: physicochemical
[2] = biological target: T1, Transitional endoplasmic reticulum ATPase (Homo sapiens, UniProt P55072); test: Inhibition of p97 (unknown origin) ATPase activity by Biomol Green Reagent based microplate reader analysis
Target sequence in this assay (P55072 whole entry): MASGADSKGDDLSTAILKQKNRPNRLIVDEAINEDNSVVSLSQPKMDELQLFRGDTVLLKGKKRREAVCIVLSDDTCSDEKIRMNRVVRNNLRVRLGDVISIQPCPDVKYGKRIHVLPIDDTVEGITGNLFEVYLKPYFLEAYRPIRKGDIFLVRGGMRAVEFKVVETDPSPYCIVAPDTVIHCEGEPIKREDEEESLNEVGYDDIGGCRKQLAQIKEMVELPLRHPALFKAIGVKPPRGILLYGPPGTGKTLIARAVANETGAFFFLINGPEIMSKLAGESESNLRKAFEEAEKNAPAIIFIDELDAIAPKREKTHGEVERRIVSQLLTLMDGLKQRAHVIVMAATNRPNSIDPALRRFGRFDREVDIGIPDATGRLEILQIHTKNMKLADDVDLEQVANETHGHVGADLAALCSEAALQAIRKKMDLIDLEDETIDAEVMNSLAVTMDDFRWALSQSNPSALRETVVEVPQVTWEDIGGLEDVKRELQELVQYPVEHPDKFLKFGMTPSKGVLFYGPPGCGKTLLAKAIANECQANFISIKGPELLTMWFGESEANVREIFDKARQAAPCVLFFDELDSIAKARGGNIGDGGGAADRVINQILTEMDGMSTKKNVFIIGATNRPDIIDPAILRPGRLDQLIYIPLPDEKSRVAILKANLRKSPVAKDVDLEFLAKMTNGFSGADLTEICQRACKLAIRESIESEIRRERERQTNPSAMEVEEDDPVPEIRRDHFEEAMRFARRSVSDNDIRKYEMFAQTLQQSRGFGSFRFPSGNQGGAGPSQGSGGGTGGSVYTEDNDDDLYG

[3] = biological target: T1, Transitional endoplasmic reticulum ATPase; test: Inhibition of p97 in human HeLa cells expressing UbG76V-GFP/ODD-Luc assessed as accumulation of Ub-GFP incubated for 6 hrs by confocal microscopic analysis; format: cell-based
Target sequence in this assay (P55072 whole entry): as above

[4] = Metabolic stability in mouse liver microsome assessed as half life at 1 uM incubated upto 45 mins in presence of NADPH-regenerating system by LC-MS analysis; format: ADME; conditions: liver microsomes
[5] = test system: HCT-116; test: Cytotoxicity against human HCT-116 cells assessed as reduction in cell viability incubated for 48 hrs by celltiter glo-luminescent assay; format: functional, cell-based; conditions: HCT-116, 48 h
[6] = Solubility of compound in PBS incubated for 30 minutes by clear-bottomed UV analysis; format: physicochemical
[7] = biological target: T1, Transitional endoplasmic reticulum ATPase; test: Inhibition of p97 in human HCT-116 cells assessed as increase in Ub-K48 level at 100 nM incubated for 6 hrs by quantitative sandwich immunoassay method relative to control; format: cell-based
Target sequence in this assay (P55072 2-806 limits assumed): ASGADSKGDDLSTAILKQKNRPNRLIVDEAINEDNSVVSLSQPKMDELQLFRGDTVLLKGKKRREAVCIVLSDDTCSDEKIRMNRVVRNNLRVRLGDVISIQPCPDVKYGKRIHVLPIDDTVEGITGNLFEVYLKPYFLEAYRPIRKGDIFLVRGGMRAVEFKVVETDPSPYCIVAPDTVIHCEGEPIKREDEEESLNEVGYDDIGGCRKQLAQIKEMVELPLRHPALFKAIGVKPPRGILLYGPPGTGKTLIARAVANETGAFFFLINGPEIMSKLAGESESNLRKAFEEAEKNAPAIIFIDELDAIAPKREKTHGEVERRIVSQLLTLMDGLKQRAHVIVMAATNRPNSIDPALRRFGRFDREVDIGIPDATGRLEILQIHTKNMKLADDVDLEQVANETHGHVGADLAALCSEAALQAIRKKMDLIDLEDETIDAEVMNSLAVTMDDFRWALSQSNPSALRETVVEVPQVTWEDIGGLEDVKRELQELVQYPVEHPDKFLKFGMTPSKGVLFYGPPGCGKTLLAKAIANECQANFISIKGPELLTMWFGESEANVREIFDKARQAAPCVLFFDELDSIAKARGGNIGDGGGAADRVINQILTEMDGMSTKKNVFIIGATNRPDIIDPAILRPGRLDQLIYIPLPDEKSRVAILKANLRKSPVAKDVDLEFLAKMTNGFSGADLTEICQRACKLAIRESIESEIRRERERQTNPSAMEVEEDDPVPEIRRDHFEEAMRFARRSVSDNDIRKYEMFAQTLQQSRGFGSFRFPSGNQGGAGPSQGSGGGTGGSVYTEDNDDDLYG

[8] = AUClast in CD-1 mouse at 5 mg/kg, iv incubated upto 24 hrs by LC-MS/MS analysis; format: ADME, organism-based; parameters: dose 5 mg/kg, time < 24 hrs, route iv; conditions: in vivo
[9] = biological target: T1, Transitional endoplasmic reticulum ATPase; test: Inhibition of p97 in human HCT-116 cells assessed as increase in caspase-3 level at 1 uM incubated for 24 hrs by quantitative sandwich immunoassay method relative to control; format: cell-based
Target sequence in this assay (P55072 2-806 limits assumed): as above

[10] = Half life in CD-1 mouse at 50 mg/kg, ip incubated upto 24 hrs by LC-MS/MS analysis; format: ADME, organism-based; conditions: in vivo
[11] = biological target: T1, Transitional endoplasmic reticulum ATPase; test: Inhibition of p97 in human HCT-116 cells assessed as increase in caspase-3 level at 0.04 to 6 uM pretreated for 2 hrs followed by washout and measured after 6 to 24 hrs by quantitative sandwich immunoassay method; format: cell-based; conditions: dose 0.04-6 µM
Target sequence in this assay (P55072 2-806 limits assumed): as above

[12] = Half life in CD-1 mouse at 50 mg/kg, po incubated upto 24 hrs by LC-MS/MS analysis; format: ADME, organism-based; conditions: in vivo
[13] = Oral bioavailability in CD-1 mouse at 50 mg/kg incubated upto 24 hrs by LC-MS/MS analysis; format: ADME, organism-based; conditions: in vivo
[14] = Volume of distribution at steady state in CD-1 mouse at 5 mg/kg, iv incubated upto 24 hrs by LC-MS/MS analysis; format: ADME, organism-based; conditions: in vivo, read-out: Vdss
[15] = Half life in CD-1 mouse at 5 mg/kg, iv incubated upto 24 hrs by LC-MS/MS analysis; format: ADME, organism-based; conditions: in vivo
[16] = AUClast in CD-1 mouse at 50 mg/kg, ip incubated upto 24 hrs by LC-MS/MS analysis; format: ADME, organism-based; parameters: time < 24 hrs, dose 50 mg/kg, route ip; conditions: in vivo
[17] = Cmax in CD-1 mouse at 50 mg/kg, ip incubated upto 24 hrs by LC-MS/MS analysis; format: ADME, organism-based; parameters: time < 24 hrs, dose 50 mg/kg, route ip; conditions: in vivo
[18] = AUClast in CD-1 mouse at 50 mg/kg, po incubated upto 24 hrs by LC-MS/MS analysis; format: ADME, organism-based; parameters: time < 24 hrs, dose 50 mg/kg, route po; conditions: in vivo
[19] = Clearance in CD-1 mouse at 5 mg/kg, iv incubated upto 24 hrs by LC-MS/MS analysis; format: ADME, organism-based; conditions: in vivo
[20] = Cmax in CD-1 mouse at 50 mg/kg, po incubated upto 24 hrs by LC-MS/MS analysis; format: ADME, organism-based; parameters: dose 50 mg/kg, time < 24 hrs, route po; conditions: in vivo

Structure (SMILES) | pIC50 [2] | pEC50 [3] | half-life at […], 1 µM [4] [min] | pIC50 [5] | solubility at 0.5 h [6] [µM] | further results
[2H]C1([2H])C([2H])([2H])C([2H])([2H])C([2H])(Sc2nnc(COc3cc(F)c(C#CCOC(=O)NC4CCN(C)CC4)cc3F)n2-c2cccnc2)C1([2H])[2H] | 8.01 | 6.19 | 8 | 5.86 | – | solubility [1]: 83 µM (≈ 49.1 µg/mL)
[2H]C1([2H])C([2H])([2H])C([2H])([2H])C([2H])(Sc2nnc(COc3ccc(-c4ccc(S(C)(=O)=O)cc4)c(C)c3)n2-c2cccnc2)C1([2H])[2H] | – | – | 6 | – | 29 (≈ 15.4 µg/mL) | –
Cc1cc(OCc2nnc(SC3CCC(F)(F)CC3)n2-c2cccnc2)ccc1-c1ccc(S(C)(=O)=O)cc1 | 6.52 | < 4.40 | < 10 | – | 110 (≈ 62.8 µg/mL) | –
Cc1cc(OCc2nnc(SC3CCNCC3)n2-c2cccnc2)ccc1-c1ccc(S(C)(=O)=O)cc1 | < 5.22 | < 4.40 | > 60 | – | 370 (≈ 198 µg/mL) | –
Cc1cc(OCc2nnc(SC3C=CCCC3)n2-c2cccnc2)ccc1C#CCNC(=O)OC(C)(C)C (centres undefined) | 6.82 | 4.96 | 7 | – | 92 (≈ 48.9 µg/mL) | –
CCC(=O)NCC#Cc1ccc(OCc2nnc(SC3C=CCCC3)n2-c2cccnc2)cc1C (centres undefined) | 7.49 | 5.72 | – | – | – | –
Cc1cc(OCc2nnc(SC3C=CCCC3)n2-c2cccnc2)ccc1C#CCOC(=O)N1CCN(C)CC1 (centres undefined) | 7.54 | 5.74 | < 10 | 5.62 | – | –
Cc1cc(OCc2nnc(SC3C=CCCC3)n2-c2cccnc2)ccc1C#CCNC(C)C (centres undefined) | – | 5.57 | 8 | – | – | –
COCCSc1nnc(COc2ccc(-c3ccc(S(C)(=O)=O)cc3)c(C)c2)n1-c1cccnc1 | 5.70 | < 4.40 | 13 | – | 260 (≈ 133 µg/mL) | –
Cc1cc(OCc2nnc(SC3CCOCC3)n2-c2cccnc2)ccc1-c1ccc(S(C)(=O)=O)cc1 | 6.34 | 4.33 | < 10 | – | 150 (≈ 80.5 µg/mL) | –
Cc1cc(OCc2nnc(SC3C=CCCC3)n2-c2cccnc2)ccc1C#CCO (centres undefined) | 7.40 | 5.89 | 1.2 | 5.33 | 39 (≈ 16.9 µg/mL) | solubility [1]: 39 µM (≈ 16.9 µg/mL)
CN1CCC(NC(=O)OCC#Cc2ccc(OCc3nnc(SC4C=CCCC4)n3-c3cccnc3)c(F)c2F)CC1 (centres undefined) | – | 5.89 | 8 | 5.49 | – | solubility [1]: 54 µM (≈ 32.1 µg/mL)
CN1CCC(NC(=O)OCC#Cc2c(F)cc(OCc3nnc(SC4C=CCCC4)n3-c3cccnc3)cc2F)CC1 (centres undefined) | 7.96 | 6.44 | – | 6.14 | – | inhibition [7]: 123%
Cc1cc(OCc2nnc(SC3C=CCCC3)n2-c2cccnc2)ccc1C#CCNC1CCN(C)CC1 (centres undefined) | 7.39 | 5.82 | 8 | – | 130 (≈ 68.7 µg/mL) | –
Cc1cc(OCc2nnc(SC3CCCC=C3F)n2-c2cccnc2)ccc1-c1ccc(S(C)(=O)=O)cc1 (centres undefined) | 6.49 | < 4.40 | 13 | – | 9 (≈ 4.96 µg/mL) | –
Cc1cc(OCc2nnc(SC3CCCC3)n2-c2cccnc2)ccc1-c1ccc(S(C)(=O)=O)cc1 | – | – | 9 | – | – | –
Cc1cc(OCc2nnc(SC3C=CCCC3)n2-c2cccnc2)ccc1C#CCOC(=O)NCCN1CCN(C)CC1 (centres undefined) | 7.68 | 6.05 | 8 | 5.55 | – | –
CN1CCC(NC(=O)OCC#Cc2cc(F)c(OCc3nnc(S[C@H]4C=CCCC4)n3-c3cccnc3)cc2F)CC1 | – | – | 5 | 6.47 | – | AUC(0-t) at 24 h [8]: 371 ng·h/mL; inhibition [9]: Active; half-life [10]: 96 min; inhibition [11]: Active; half-life [12]: 126 min; bioavailability [13]: 17%; Vd [14]: 5.9 L/kg; solubility [1]: 74 µM (≈ 44 µg/mL); half-life [15]: 41.4 min; AUC(0-t) at 24 h [16]: 9290 ng·h/mL; Cmax [17]: 12700 ng/mL; AUC(0-t) at 24 h [18]: 601 ng·h/mL; clearance [19]: 234 mL/min/kg; Cmax [20]: 366 ng/mL
CN1CCC(NC(=O)OCC#Cc2cc(F)c(OCc3nnc(S[C@@H]4C=CCCC4)n3-c3cccnc3)cc2F)CC1 | – | – | – | 5.32 | – | –
Cc1cc(OCc2nnc(SC3C=CCCC3)n2-c2cccnc2)ccc1C#CCN (centres undefined) | – | 5.35 | 24 | – | 53 (≈ 22.9 µg/mL) | –
Cc1cc(OCc2nnc(SC3C=CCCC3)n2-c2cccnc2)ccc1C#CCNS(=O)(=O)c1ccc(F)cc1 (centres undefined) | – | < 4.40 | 9 | – | 24 (≈ 14.2 µg/mL) | –
CN1CCC(NC(=O)OCC#Cc2cc(F)c(OCc3nnc(SC4C=CCCC4)n3-c3cccnc3)cc2F)CC1 (centres undefined) | – | – | 3 | 6.07 | – | inhibition [7]: 133%; solubility [1]: 71 µM (≈ 42.2 µg/mL)
Cc1cc(OCc2nnc(SC3C=CCCC3)n2-c2cccnc2)ccc1-c1ccc(S(C)(=O)=O)cc1 (centres undefined) | 7.47 | 6.03 | < 10 | – | 140 (≈ 74.6 µg/mL) | –
CN1CCN(CCNC(=O)OCC#Cc2ccc(OCc3nnc(SC4C=CCCC4)n3-c3cccnc3)cc2F)CC1 (centres undefined) | – | 6.09 | 4 | 5.87 | – | solubility [1]: 60 µM (≈ 36.3 µg/mL)
Cc1cc(OCc2nnc(SC3C=CCCC3)n2-c2cccnc2)ccc1C#CCNS(C)(=O)=O (centres undefined) | – | 5.57 | 7 | – | – | –
Cc1cc(OCc2nnc(SC3C=CCCC3)n2-c2cccnc2)ccc1C#CCOC(=O)NC1CCN(C)CC1 (centres undefined) | 7.64 | 6.09 | 7 | 5.68 | 61 (≈ 34.9 µg/mL) | solubility [1]: 61 µM (≈ 34.9 µg/mL)
Cc1cc(OCc2nnc(SC3CCCCC3)n2-c2cccnc2)ccc1-c1ccc(S(C)(=O)=O)cc1 | 7.22 | 5.62 | 8 | – | 170 (≈ 90.9 µg/mL) | –
